Measurements from patent US20260184713A1, “KINASE INHIBITORS” (The United States of America, as represented by the …, priority 2022, published 2026).
Blank lines part the entries; values can stand above or below the compound they belong to.

How the values were obtained:
[1] = target: RIα2:JPKAcα2 chimeric kinase holoenzyme (Homo sapiens, UniProt P17612); assay: JPKAcα chimeric kinase holoenzyme ELISA dose response
Description: Compounds were tested to determine an IC50 value for inhibitory activity against RIα2:JPKAcα2 chimeric kinase holoenzyme. A 3× dose-response curve was set up over a final compound concentration range of 0-10 μM containing 1 μM cAMP, 50 μM ATP, and 0.4% DMSO in 100 mM Tris-HCl pH 7.5 (all final concentrations). A no cAMP/ATP control was also included for background normalization.
The % normalized activity measures were then fit to the following equation using a nonlinear regression least-squares fit with a variable slope (GraphPad Prism Software, San Diego, CA) an IC50 value was calculated using the following formula.

DYRK4 = target: T1, DYRK4 (Homo sapiens, UniProt Q9NR20); assay: HOTSPOT radiometric kinase assay; assay type: biochemical; conditions: 10 μM ATP
T1 construct: purchased Reaction Biology Corp

PKADJ = target: T2, PKADJ (Homo sapiens, UniProt P17612); assay: modified sandwich ELISA, PKADJ holoenzyme; assay type: biochemical
T2 construct: gene fusion between the first exon of the gene encoding the Heat Shock Protein 40 (HSP40) family member DNAJB1 and the second exon; the other entry of the earlier key: DNAJB1 (P25685, DnaJ homolog subfamily B member 1)
Description: The reaction and readout components of this assay were than optimized including optimal reactant concentrations for the kinase reaction suitable to identify both inhibitors and activators of PKAJ.
The PKADJ holoenzyme was treated with the test compounds in the reaction step where the holoenzyme was dissociated to release the activated catalytic unit (PKADJc).

wide-type PKA (wt-PKA) = wide-type PKA (wt-PKA) (Homo sapiens, UniProt P17612); assay: modified sandwich ELISA, wild-type PKA; assay type: biochemical; conditions: read-out: IC50 against wt-PKA
PKG1α = PKG1α (Homo sapiens, UniProt Q13976); assay: HOTSPOT radiometric kinase assay; assay type: biochemical; conditions: 50 nM, 10 μM ATP
PKG1β = target: T3, PKG1β (Homo sapiens, UniProt Q13976); assay: HOTSPOT radiometric kinase assay; assay type: biochemical; conditions: 50 nM, 10 μM ATP
T3 construct: purchased Reaction Biology Corp
T3 sequence (Q13976 1-686 isoform Q13976-2): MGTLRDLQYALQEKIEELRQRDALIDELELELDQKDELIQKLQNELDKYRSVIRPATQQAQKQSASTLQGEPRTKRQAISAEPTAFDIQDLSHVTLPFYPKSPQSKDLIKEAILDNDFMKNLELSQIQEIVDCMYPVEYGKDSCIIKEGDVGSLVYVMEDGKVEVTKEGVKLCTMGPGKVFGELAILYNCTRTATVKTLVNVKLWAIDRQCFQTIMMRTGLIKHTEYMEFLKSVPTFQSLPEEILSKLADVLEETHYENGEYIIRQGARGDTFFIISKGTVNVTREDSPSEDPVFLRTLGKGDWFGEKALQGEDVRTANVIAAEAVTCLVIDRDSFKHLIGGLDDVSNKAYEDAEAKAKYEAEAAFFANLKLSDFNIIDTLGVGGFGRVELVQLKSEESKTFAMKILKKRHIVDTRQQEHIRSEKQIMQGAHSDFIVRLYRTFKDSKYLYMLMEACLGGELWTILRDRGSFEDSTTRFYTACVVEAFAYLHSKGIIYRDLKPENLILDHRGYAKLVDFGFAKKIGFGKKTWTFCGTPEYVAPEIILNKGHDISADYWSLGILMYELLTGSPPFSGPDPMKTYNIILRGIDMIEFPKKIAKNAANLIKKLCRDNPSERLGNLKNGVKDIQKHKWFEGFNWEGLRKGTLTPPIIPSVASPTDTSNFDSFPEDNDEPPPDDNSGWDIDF

PKCθ = target: T4, PKCθ (Homo sapiens, UniProt Q04759); assay: HOTSPOT radiometric kinase assay; assay type: biochemical; conditions: 50 nM, 10 μM ATP
T4 construct: purchased Reaction Biology Corp
T4 sequence (Q04759 whole entry): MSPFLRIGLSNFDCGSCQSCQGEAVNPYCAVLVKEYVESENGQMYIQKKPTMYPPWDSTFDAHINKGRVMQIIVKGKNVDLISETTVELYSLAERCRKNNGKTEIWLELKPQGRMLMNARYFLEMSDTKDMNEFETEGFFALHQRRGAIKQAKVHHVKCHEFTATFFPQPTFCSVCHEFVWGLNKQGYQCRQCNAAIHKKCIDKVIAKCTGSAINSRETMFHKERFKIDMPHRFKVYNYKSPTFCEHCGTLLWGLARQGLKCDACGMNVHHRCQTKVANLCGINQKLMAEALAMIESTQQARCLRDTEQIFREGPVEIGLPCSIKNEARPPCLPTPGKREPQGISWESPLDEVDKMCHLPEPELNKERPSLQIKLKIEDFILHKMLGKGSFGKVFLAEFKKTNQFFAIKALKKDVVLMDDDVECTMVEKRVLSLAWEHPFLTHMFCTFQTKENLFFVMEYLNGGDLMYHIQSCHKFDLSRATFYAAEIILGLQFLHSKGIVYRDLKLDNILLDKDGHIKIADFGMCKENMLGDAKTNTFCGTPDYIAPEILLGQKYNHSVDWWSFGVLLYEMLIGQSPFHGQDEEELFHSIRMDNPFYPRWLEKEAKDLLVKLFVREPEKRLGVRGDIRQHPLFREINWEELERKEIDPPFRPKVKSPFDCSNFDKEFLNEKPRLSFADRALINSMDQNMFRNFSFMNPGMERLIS

CLK1 = target: T5, CLK1 (Homo sapiens, UniProt P49759); assay: HOTSPOT radiometric kinase assay; assay type: biochemical; conditions: 50 nM, 10 μM ATP
T5 construct: purchased Reaction Biology Corp

STK39/STLK3 = target: T6, STK39/STLK3 (Homo sapiens, UniProt Q9UEW8); assay: HOTSPOT radiometric kinase assay; assay type: biochemical; conditions: 50 nM, 10 μM ATP
T6 construct: purchased Reaction Biology Corp

LATS1 = target: T7, LATS1 (Homo sapiens, UniProt O95835); assay: HOTSPOT radiometric kinase assay; assay type: biochemical; conditions: 50 nM, 10 μM ATP
T7 construct: purchased Reaction Biology Corp
T7 sequence (O95835 1-1130): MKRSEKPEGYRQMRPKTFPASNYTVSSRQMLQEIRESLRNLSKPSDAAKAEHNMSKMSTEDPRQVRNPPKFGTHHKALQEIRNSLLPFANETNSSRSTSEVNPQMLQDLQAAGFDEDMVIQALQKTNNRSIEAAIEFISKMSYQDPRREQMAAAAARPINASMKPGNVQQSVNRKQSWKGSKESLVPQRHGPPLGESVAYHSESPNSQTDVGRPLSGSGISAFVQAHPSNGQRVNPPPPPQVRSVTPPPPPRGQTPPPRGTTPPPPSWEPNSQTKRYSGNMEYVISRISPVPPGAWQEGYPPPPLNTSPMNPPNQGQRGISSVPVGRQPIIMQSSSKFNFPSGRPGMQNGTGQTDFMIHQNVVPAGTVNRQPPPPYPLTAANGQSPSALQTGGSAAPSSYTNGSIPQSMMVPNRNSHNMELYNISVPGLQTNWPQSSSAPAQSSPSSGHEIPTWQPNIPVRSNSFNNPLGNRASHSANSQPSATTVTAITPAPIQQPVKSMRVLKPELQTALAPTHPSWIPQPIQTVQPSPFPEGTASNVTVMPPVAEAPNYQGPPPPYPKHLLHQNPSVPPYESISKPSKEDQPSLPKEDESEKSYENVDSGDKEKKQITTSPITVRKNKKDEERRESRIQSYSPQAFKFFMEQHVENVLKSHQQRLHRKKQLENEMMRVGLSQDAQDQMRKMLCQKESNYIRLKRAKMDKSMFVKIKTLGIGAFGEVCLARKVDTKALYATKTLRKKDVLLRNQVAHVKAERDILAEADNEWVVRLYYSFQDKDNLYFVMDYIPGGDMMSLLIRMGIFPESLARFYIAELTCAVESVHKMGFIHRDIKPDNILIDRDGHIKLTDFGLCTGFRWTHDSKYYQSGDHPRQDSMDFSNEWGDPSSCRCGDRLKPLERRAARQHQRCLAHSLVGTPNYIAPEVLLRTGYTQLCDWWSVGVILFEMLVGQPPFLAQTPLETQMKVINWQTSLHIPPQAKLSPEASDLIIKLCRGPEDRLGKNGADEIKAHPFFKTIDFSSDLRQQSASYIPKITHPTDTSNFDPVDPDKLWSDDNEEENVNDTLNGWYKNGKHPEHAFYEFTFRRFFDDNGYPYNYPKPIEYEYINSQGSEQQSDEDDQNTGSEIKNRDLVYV

DYRK1A = target: T8, DYRK1A (Homo sapiens, UniProt Q13627); assay: HOTSPOT radiometric kinase assay; assay type: biochemical; conditions: 50 nM, 10 μM ATP
T8 construct: purchased Reaction Biology Corp

DYRK2 = target: T9, DYRK2 (Homo sapiens, UniProt Q92630); assay: HOTSPOT radiometric kinase assay; assay type: biochemical; conditions: 50 nM, 10 μM ATP
T9 construct: purchased Reaction Biology Corp
T9 sequence (Q92630 1-601): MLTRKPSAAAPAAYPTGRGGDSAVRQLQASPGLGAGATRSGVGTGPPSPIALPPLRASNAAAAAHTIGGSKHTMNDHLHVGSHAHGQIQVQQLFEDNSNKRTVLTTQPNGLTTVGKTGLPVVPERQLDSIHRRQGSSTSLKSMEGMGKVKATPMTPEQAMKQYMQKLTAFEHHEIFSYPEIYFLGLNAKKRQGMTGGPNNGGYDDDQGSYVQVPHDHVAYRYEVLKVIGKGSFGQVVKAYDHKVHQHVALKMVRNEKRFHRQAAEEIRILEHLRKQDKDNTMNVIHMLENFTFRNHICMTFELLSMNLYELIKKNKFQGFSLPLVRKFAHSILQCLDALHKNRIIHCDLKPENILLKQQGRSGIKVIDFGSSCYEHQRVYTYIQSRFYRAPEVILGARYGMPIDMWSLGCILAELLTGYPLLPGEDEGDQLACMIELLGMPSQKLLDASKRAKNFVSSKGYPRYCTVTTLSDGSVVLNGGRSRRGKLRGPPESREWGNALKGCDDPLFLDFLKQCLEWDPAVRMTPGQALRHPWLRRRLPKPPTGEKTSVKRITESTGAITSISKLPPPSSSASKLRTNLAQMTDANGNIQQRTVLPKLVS

PKAα = PKAα (Homo sapiens, UniProt P17612); assay: HOTSPOT radiometric kinase assay
Description: The differential was calculated as follows: IC50 (kinase)/IC50 (PKG1a).

AKT1 = AKT1 (Homo sapiens, UniProt P31749); assay: HOTSPOT radiometric kinase assay
AKT1, sequence (P31749 whole entry): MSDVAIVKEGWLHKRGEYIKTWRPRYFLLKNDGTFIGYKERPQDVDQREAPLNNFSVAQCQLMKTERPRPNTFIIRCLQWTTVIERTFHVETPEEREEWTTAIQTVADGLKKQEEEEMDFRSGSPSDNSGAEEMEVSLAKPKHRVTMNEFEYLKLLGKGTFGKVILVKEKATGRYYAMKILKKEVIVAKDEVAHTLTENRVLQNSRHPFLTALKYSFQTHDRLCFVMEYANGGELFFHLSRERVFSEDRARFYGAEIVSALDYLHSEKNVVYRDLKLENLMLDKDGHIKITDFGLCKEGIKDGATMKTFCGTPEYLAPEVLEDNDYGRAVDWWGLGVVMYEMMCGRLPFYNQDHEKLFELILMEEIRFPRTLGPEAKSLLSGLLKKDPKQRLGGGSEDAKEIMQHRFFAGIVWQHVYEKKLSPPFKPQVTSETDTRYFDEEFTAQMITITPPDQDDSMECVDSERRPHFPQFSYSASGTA

MAP2K1 (MEK1) = MAP2K1 (MEK1) (Homo sapiens, UniProt Q02750); assay: HOTSPOT radiometric kinase assay
MAP2K1 (MEK1), sequence (Q02750 whole entry): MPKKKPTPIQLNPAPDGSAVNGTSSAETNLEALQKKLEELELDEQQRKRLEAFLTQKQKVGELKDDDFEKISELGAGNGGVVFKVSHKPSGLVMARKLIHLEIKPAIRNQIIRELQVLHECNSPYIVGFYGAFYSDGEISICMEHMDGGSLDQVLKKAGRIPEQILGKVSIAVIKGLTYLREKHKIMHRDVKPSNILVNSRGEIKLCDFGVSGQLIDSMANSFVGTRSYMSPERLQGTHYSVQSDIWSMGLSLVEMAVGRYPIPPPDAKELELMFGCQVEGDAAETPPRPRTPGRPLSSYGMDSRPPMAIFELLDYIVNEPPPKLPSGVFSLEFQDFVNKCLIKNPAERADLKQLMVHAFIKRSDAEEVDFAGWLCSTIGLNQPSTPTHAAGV

CAMK1δ = CAMK1δ (Homo sapiens, UniProt Q8IU85); assay: HOTSPOT radiometric kinase assay
CAMK1δ, sequence (Q8IU85 whole entry): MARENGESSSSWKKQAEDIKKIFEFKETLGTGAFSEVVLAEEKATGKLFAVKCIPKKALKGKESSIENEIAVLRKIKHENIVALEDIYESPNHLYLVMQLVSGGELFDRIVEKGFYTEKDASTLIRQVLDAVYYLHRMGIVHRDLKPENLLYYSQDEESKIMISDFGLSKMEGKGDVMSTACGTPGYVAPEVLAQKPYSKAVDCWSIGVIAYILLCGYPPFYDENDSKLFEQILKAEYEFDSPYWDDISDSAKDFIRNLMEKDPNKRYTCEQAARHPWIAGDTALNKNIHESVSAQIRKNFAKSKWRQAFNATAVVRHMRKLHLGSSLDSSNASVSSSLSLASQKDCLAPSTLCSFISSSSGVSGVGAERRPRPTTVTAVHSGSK

CK1α1 = CK1α1 (Homo sapiens, UniProt P48729); assay: HOTSPOT radiometric kinase assay
CK1α1, sequence (P48729 whole entry): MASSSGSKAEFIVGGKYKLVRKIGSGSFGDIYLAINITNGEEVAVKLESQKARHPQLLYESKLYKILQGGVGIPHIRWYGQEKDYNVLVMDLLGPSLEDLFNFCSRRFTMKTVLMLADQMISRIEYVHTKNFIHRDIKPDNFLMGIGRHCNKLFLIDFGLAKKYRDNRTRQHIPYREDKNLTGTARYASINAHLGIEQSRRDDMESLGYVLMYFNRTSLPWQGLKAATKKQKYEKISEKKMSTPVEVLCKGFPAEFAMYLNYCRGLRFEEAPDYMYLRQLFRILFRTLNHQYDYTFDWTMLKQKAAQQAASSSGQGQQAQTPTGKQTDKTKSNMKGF

ERBB2/HER2 = ERBB2/HER2 (Homo sapiens, UniProt P04626); assay: HOTSPOT radiometric kinase assay
ERK1 = ERK1 (Homo sapiens, UniProt P27361); assay: HOTSPOT radiometric kinase assay
FLT1/VEGFR1 = FLT1/VEGFR1 (Homo sapiens, UniProt P17948); assay: HOTSPOT radiometric kinase assay
FLT1/VEGFR1, sequence (P17948 27-1338): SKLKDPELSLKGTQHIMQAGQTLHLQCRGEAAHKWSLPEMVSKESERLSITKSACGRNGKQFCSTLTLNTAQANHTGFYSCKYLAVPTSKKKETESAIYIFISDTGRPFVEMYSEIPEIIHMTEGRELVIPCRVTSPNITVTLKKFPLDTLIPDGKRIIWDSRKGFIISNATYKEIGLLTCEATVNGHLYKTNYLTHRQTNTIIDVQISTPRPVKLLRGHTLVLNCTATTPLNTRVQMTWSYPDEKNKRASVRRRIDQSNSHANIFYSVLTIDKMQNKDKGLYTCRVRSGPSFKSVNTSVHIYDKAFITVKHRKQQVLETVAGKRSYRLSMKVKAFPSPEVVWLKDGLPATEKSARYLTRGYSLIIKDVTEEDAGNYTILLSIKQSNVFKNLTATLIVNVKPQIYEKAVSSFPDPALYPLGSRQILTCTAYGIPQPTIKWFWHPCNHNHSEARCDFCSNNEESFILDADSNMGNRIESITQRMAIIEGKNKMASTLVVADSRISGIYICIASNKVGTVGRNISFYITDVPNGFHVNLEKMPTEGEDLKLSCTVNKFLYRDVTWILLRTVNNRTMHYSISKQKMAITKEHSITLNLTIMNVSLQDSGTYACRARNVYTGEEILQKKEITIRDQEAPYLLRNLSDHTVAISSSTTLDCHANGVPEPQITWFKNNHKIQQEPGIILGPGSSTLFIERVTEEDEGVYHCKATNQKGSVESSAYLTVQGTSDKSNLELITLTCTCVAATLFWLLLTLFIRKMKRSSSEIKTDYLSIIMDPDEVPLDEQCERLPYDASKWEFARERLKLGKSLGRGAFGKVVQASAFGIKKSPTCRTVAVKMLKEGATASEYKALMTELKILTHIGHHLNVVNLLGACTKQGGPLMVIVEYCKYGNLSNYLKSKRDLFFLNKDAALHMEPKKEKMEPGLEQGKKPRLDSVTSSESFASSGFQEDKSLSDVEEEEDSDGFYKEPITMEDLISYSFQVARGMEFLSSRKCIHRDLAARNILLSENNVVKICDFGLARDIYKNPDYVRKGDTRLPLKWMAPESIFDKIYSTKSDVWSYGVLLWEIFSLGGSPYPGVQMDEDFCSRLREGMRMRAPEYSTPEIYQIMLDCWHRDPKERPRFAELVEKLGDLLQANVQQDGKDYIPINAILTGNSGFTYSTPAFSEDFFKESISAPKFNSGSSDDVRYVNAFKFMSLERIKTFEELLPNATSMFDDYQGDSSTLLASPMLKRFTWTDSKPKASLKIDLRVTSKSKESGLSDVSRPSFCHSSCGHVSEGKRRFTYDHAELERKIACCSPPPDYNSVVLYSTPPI

GSK3β = GSK3β (Homo sapiens, UniProt P49841); assay: HOTSPOT radiometric kinase assay
GSK3β, sequence (P49841 whole entry): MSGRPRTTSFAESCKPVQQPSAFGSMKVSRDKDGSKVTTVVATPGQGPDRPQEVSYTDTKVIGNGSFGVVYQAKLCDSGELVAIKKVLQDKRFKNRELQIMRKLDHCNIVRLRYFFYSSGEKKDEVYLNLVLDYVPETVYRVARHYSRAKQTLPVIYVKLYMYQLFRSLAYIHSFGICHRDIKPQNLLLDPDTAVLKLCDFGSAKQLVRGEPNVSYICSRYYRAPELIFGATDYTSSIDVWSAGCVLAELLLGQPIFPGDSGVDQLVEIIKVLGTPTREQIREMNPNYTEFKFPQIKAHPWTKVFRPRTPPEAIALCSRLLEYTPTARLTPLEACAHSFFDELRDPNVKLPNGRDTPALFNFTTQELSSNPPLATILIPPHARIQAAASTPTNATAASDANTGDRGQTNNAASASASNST

PKCα = PKCα (Homo sapiens, UniProt P17252); assay: HOTSPOT radiometric kinase assay
[2] = tested on: panel of 370 human protein kinases; assay: pan human kinome profiling (370 kinases); conditions: 50 nM; panel of 370 kinases

IC50 [1]: > 10 µM
Compound: CC(=O)NCCNC(=O)C1=CN(c2ncnc3[nH]cnc23)CCS1 [Compound 183A050B, N-(2-acetamidoethyl)-4-(7H-purin-6-yl)-3,4-dihydro-2H-1,4-thiazine-6-carboxamide]

IC50 [1]: > 10 µM
Compound: O=C(NCCNC(=O)c1ccccn1)C1=CN(c2ncnc3nc[nH]c23)CCS1 [Compound 183A049C, N-(2-(picolinamido)ethyl)-4-(7H-purin-6-yl)-3,4-dihydro-2H-1,4-thiazine-6-carboxamide]

Compound: O=C1Nc2ccc(I)cc2/C1=C/c1cc(Br)c(O)c(Br)c1 [GW5074, reference compound]
IC50 (DYRK4): 3.66 µM

IC50 [1]: 0.1 to 1 µM
Compound: NCCNC(=O)C1=CN(c2ncnc3[nH]cnc23)CCS1 [Compound 183A049E, N-(2-aminoethyl)-4-(7H-purin-6-yl)-3,4-dihydro-2H-1,4-thiazine-6-carboxamide]

fold less potent than 1 against PKADJ (PKADJ; compared with compound 1): more than 60 fold
IC50 (PKADJ; modified sandwich ELISA, read-out: IC50 against PKADJ): 69 µM
IC50 (wide-type PKA (wt-PKA)): 45 µM
Compound: Cn1cncc1C1=CN(c2ncnc3[nH]c(=O)[nH]c23)CCS1 [Compound 2, Aplithianine B]

IC50 (wide-type PKA (wt-PKA)): 1.22 µM
inhibition at 0.05 µM (PKG1α): > 50%
inhibition at 0.05 µM (PKG1β): > 50%
inhibition at 0.05 µM (PKCθ): > 50%
inhibition at 0.05 µM (CLK1): > 50%
inhibition at 0.05 µM (STK39/STLK3): > 50%
inhibition at 0.05 µM (LATS1): > 50%
inhibition at 0.05 µM (DYRK1A): > 50%
inhibition at 0.05 µM (DYRK2): > 50%
IC50 (PKAα): 0.043 to 0.189 µM
PKAα % inhibition (PKAα; 50 nM, 10 μM ATP): 78%
IC50 (AKT1): 0.043 to 0.189 µM
IC50 (MAP2K1 (MEK1)): 18 to 65 µM
IC50 (CAMK1δ): 18 to 65 µM
IC50 (CK1α1): 0.8 to 6.6 µM
IC50 (ERBB2/HER2): 18 to 65 µM
IC50 (ERK1): 0.8 to 6.6 µM
IC50 (FLT1/VEGFR1): 18 to 65 µM
IC50 (GSK3β): 0.043 to 0.189 µM
IC50 (PKCα): 0.8 to 6.6 µM
number of kinases more potent targets compared to PKA [2]: 29
Compound: Cn1cnc(Br)c1C1=CN(c2ncnc3nc[nH]c23)CCS1 [Compound 1a, Aplithianine A1]

IC50 [1]: > 10 µM
Compound: O=C(NCCO)C1=CN(c2ncnc3[nH]cnc23)CCS1 [Compound 183A050D, N-(2-hydroxyethyl)-4-(7H-purin-6-yl)-3,4-dihydro-2H-1,4-thiazine-6-carboxamide]

IC50 [1]: > 10 µM
Compound: NCCNC(=O)C1CN(c2ncnc3[nH]cnc23)CCS1 (stereo not drawn) [Compound 183A051C, N-(2-aminoethyl)-4-(7H-purin-6-yl)thiomorpholine-2-carboxamide]

IC50 [1]: > 10 µM
Compound: O=C(NCCNC(=O)c1ccccc1)C1=CN(c2ncnc3nc[nH]c23)CCS1 [Compound 183A049F, N-(2-benzamidoethyl)-4-(7H-purin-6-yl)-3,4-dihydro-2H-1,4-thiazine-6-carboxamide]

IC50 [1]: 1.01 to 10 µM
Compound: CNCCNC(=O)C1=CN(c2ncnc3nc[nH]c23)CCS1 [Compound 183A050E, N-(2-(methylamino)ethyl)-4-(7H-purin-6-yl)-3,4-dihydro-2H-1,4-thiazine-6-carboxamide]

IC50 [1]: > 10 µM
Compound: COCCNC(=O)C1=CN(c2ncnc3[nH]cnc23)CCS1 [Compound 183A050C, N-(2-methoxyethyl)-4-(7H-purin-6-yl)-3,4-dihydro-2H-1,4-thiazine-6-carboxamide]
